For 39 molecules, AC26 results are on record in PubChem BioAssay AID624491 (Broad Institute, 2012).

The test system of the experiment is D54 ERlucT glycosylation luciferase reporter, luminescence, 24 h. The experiment can be described thus: N-linked glycosylation inhibitors, luciferase reporter, dose response, D54 ERlucT cells, luminescence, cherry-picks (AID 624491).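 Note: signal gain reflects blocked N-linked glycosylation of a luciferase reporter; actives raise luciferase signal so AC26 marks activators of the reporter.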 In general terms: In a reporter assay the amount or activity of a reporter protein is the signal.

For the molecule `Oc1cccc(Nc2c3ccccc3nc3ccccc23)c1`, the AC26 is 1440 nM.
As for `COc1ccc(/C=N/NC(=O)c2cccc(NC(=O)c3ccccc3Cl)c2)cc1`, the AC26 was 5130 nM.
With `COC(=O)c1sc(N)c(C(=O)OC)c1COC(=O)c1c(C)noc1C` the figure was 2130 nM; with `CC(C)C(=O)Nc1ccc(C(=O)N/N=C/c2cc(Br)cc(Br)c2O)cc1`, 9890 nM.
For `Cc1cc(NC(=O)CSc2nc(-c3ccco3)cc(C(F)(F)F)n2)no1` the value was 565 nM; for `COc1cc(F)ccc1-c1csc(C(NC(C)=O)c2ccc(F)c(F)c2)n1` (centres undefined), 681 nM.
For `CCN(CC)CCCNc1cc(C)c(C#N)c2nc3ccccc3n12` the value was 17000 nM; for `Cc1[nH]c(C)c(C(=O)/C=C/c2ccc([N+](=O)[O-])cc2)c1C`, 633 nM.
As for `CN(C)c1ccc(-c2ccnc3c2CC(C)(C(=O)NCc2ccccc2)O3)cc1` (centres undefined), the AC26 is 5530 nM.
With `O=c1cc(-c2ccc(O)cc2)oc2cc(O)c(C3OC(CO)C(O)C(O)C3O)c(O)c12` (centres undefined) the figure was 690 nM; with `CC(=O)Nc1sc(NC(=O)c2ccccc2)nc1-c1cccs1`, 3450 nM.
`CCOC(=O)c1c(C)[nH]c(C(=O)N/N=C/c2ccc(OC)c(OC)c2)c1C`: the AC26 was 2070 nM.
For `Cc1ccccc1NC(=O)Cn1nnc(C(=O)NCc2ccco2)c1N` the value was 1770 nM.
As to `Cn1c(=O)[nH]c(=O)c2c1nc(SCC(N)=O)n2Cc1cccc(Br)c1`, the AC26 is 660 nM.
Regarding `CCOC(=O)c1ccc(N=c2sc(C(=O)OC)cc(=O)n2Cc2ccco2)cc1`, the AC26 was 3830 nM.
With `COc1ccc(N/C=C/C(=O)c2cc(OC)c(OC)c(OC)c2)cc1` the figure was 28.7 nM; with `COc1ccc2c(c1)C(=O)N1[C@H]3c4cc(Cl)ccc4OC[C@@H]3[C@H](c3ccccc3)[C@]1(C)C(=O)N2`, 1010 nM.
As for `CC(=O)c1cccc(Nc2c3c(nc4ccccc24)CCC3)c1`, the AC26 is 819 nM.
For `COc1ccc(-c2n[nH]c3c2CN(C(=O)c2ccc(OC)c(OC)c2)CC3)cc1` the value was 1760 nM; for `COC(=O)c1cc(C(=O)c2c(C)cc3ccccn23)cc([N+](=O)[O-])c1`, 1770 nM; for `O=C(NCCc1ccc(F)cc1)c1coc(=O)c(Br)c1`, 413 nM.
With `COc1ccccc1NC(=O)Cn1nnc(C(=O)NCc2cccs2)c1N` the figure was 867 nM.
For `Cc1c(Cl)cccc1Nc1nc(N)nc(CN2CCc3ccccc3C2)n1` the value was 320 nM; for `Cc1ccc(C(=O)Nc2ccccc2C(=O)N2CC(C)OC(C)C2)cc1` (centres undefined), 1330 nM; for `COc1cc(F)ccc1-c1csc(C(NC(C)=O)c2cccc(F)c2)n1` (centres undefined), 206 nM.
Regarding `O=C(N/N=C/c1cccs1)c1cc(-c2cccc3ccccc23)n[nH]1`, the AC26 was 4700 nM.
In the case of `CCCCn1c(SCc2c(C)noc2C)nc2cc(S(N)(=O)=O)ccc21`, the AC26 was 1190 nM.
For `Cc1ccccc1OCCc1c(C)[nH]c(=S)[nH]c1=O` the value was 1700 nM; for `Cc1ccc2nc(Cl)c(/C=C/C(=O)c3ccco3)cc2c1`, 7890 nM; for `NC(=O)c1cccc(-c2coc3c(C(=O)NCc4ccccc4)cccc23)c1`, 4070 nM.
`C[C@@]12C(=O)Nc3ccc(Br)cc3C(=O)N1[C@H]1c3ccccc3OC[C@@H]1[C@@H]2c1ccccc1`: the AC26 was 368 nM.
With `CCN(CC)CCCNc1ccc2ncn3c4ccc(O)cc4c(=O)c1c23` the figure was 92.6 nM; with `COc1ccc(Nc2oc(-c3ccc(Cl)cc3)nc2C#N)cc1`, 348 nM.
Regarding `CC=Cc1cc2c(c(=O)o1)C(=O)C(O)C(C)O2` (centres undefined), the AC26 was 5300 nM.
For `COc1ccc(S(=O)(=O)N2CCCOC2CNC(=O)C(=O)NCCc2ccco2)cc1C` (centres undefined) the value was 9490 nM; for `CCOC(=O)Nc1nc2ccc(Cn3cccc3)cc2[nH]1`, 674 nM.
With `CC(=O)N(C1=C(Cl)C(=O)c2ccccc2C1=O)C1CCCCC1` the figure was 31.1 nM; with `c1ccc(Cc2nnc(Sc3ccccc3)c3ccccc23)cc1`, 5170 nM.
With `Cn1cccc1/C=C1\SC(=Nc2cccc(O)c2)NC1=O` the figure was 2850 nM.
